# Source: US8541575B2, “3,4-diarylpyrazoles as protein kinase inhibitors” (Nerviano Medical Sciences S.R.L., priority 2008, dated 2013)
# How the values were obtained:
# Type in all cases: cell-based
# [1] = test system: p-MAPK (T202/Y204) in A375 human melanoma cells, having a mutated B-RAF; assay: p-MAPK (T202/Y204) ArrayScan assay; details: A-375, treated 1.5 or 2 hours, p-MAPK cytoplasmatic fluorescence, read-out: Array Scan A375 IC50
# Procedure: p-MAPK (T202/Y204) ArrayScan Assay
# A375 human melanoma cells, having a mutated B-RAF, are seeded in 384-well poly-lysine coated plates (Matrix) at a density of 1000 cells/well with appropriate medium supplemented with 10% FCS and incubated for 16-24 hours. Cells are treated for 1.5 or 2 hours with increasing doses of compounds (starting dose 10 μM, dilution factor 2.5). At the end of the treatment cells are fixed with p-formaldehyde 3.7% for 15-30 min, then washed twice with D-PBS […] and permeabilized with D-PBS containing 0.1% Triton X-100 and 1% BSA (Sigma-Aldrich) for 15 minutes at room temperature (staining solution). Anti-phospho-MAPK (T202/Y204) monoclonal antibody E10 (Cell Signaling, cat. #9106) diluted 1:100 is added in staining solution and incubated for 1 hour at 37° C. After removal of the primary antibody solution, the anti-mouse Cy™2-conjugated (Green) secondary antibody (Amersham) diluted 1:500 in staining solution containing 2 μg/ml DAPI is added. The plate is incubated for 1 hour at 37° C., washed twice and then red with Cellomics' ArrayScan VTI (4 fields/well, CytoNucTrans algorithm).
# The parameter “MEAN_RingAvgIntenCh2”, which measures the mean cytoplasmatic fluorescence intensity associated to p-MAPK staining, is reported as the final result.
# [2] = test system: human melanoma cells A375 (with a mutated B-RAF); assay: In vitro cell proliferation assay, A375; details: A-375, 72 hours treatment, cellular ATP readout
# Procedure: (§1) In Vitro Cell Proliferation Assay
# (§2) Exponentially growing human melanoma cells A375 (with a mutated B-RAF) and human melanoma cells Mewo (with wild-type B-Raf) were seeded and incubated at 37° C. in a humidified 5% CO2 atmosphere. After 24 hours, scalar doses of the compound were added to the medium and cells oncubated for 72 hours. At the end of treatment, cells were washed and counted. Cell number was determined by a cellular adenosine triphosphate monitoring system. Cell proliferation was compared to control cells and the concentration inhibiting cell growth by 50% was calculated.
# [3] = test system: human melanoma cells Mewo (with wild-type B-Raf); assay: In vitro cell proliferation assay, Mewo; details: 72 hours treatment, cellular ATP readout
# Procedure: as §1, §2
Compound,IC50 [1] [µM],IC50 [2] [µM],IC50 [3] [µM]
"CCC(=O)Nc1cc(-c2c[nH]nc2-c2cccc(NC(=O)Nc3ccc(C(F)(F)F)cc3)c2)ccn1 [compound 39, N-(4-{3-[3-({[4-(trifluoromethyl)phenyl]carbamoyl}amino)phenyl]-1H-pyrazol-4-yl}pyridin-2-yl)propanamide]",2.32,1.14,> 10
"CC(C)C(=O)Nc1cc(-c2c[nH]nc2-c2cccc(NC(=O)Nc3ccc(C(F)(F)F)cc3)c2)ccn1 [compound 40, 2-methyl-N-(4-{3-[3-({[4-(trifluoromethyl)phenyl]carbamoyl}amino)phenyl]-1H-pyrazol-4-yl}pyridin-2-yl)propanamide]",1.75,3.63,> 10
"O=C(CCCO)Nc1cc(-c2c[nH]nc2-c2cccc(NC(=O)Nc3ccc(C(F)(F)F)cc3)c2)ccn1 [compound 43, 4-hydroxy-N-(4-{3-[3-({[4-(trifluoromethyl)phenyl]carbamoyl}amino)phenyl]-1H-pyrazol-4-yl}pyridin-2-yl)butanamide]",0.41,3.5,> 10
"CCCCn1cc(-c2ccncc2)c(-c2cccc(NC(=O)Nc3ccc(C(F)(F)F)cc3)c2)n1 [compound 49, 1-[3-(1-Butyl-4-pyridin-4-yl-1H-pyrazol-3-yl)-phenyl]-3-(4-trifluoromethyl-phenyl)-urea]",1.59,2.61,4.54
"Cn1cc(-c2ccncc2)c(-c2c(F)ccc(NS(=O)(=O)c3cc(F)ccc3F)c2F)n1 [compound 52, N-[3-(1-Methyl-4-pyridin-4-yl-1H-pyrazol-3-yl)-2,4-difluoro-phenyl]-2,5-difluoro-benzenesulfonamide]",< 0.01,0.16,> 10
"CNc1cc(-c2c[nH]nc2-c2c(F)ccc(NS(=O)(=O)c3cc(F)ccc3F)c2F)ccn1 [compound 53, N-{2,4-Difluoro-3-[4-(2-methylamino-pyridin-4-yl)-1H-pyrazol-3-yl]-phenyl}-2,5-difluoro-benzenesulfonamide]",0.87,1.75,> 10
"CCNc1cc(-c2c[nH]nc2-c2c(F)ccc(NS(=O)(=O)c3cc(F)ccc3F)c2F)ccn1 [compound 54, N-{3-[4-(2-Ethylamino-pyridin-4-yl)-1H-pyrazol-3-yl]-2,4-difluoro-phenyl}-2,5-difluoro-benzenesulfonamide]",0.31,0.97,> 10
"CCNc1nccc(-c2c[nH]nc2-c2cccc(NS(=O)(=O)c3cc(F)ccc3F)c2)n1 [compound 55, N-(3-{4-[2-(ethylamino)pyrimidin-4-yl]-1H-pyrazol-3-yl}phenyl)-2,5-difluorobenzenesulfonamide]",0.17,1.25,> 10
"CC(C)Cn1cc(-c2ccncc2)c(-c2c(F)ccc(NS(=O)(=O)c3cc(F)ccc3F)c2F)n1 [compound 56, N-[3-(1-i-Butyl-4-pyridin-4-yl-1H-pyrazol-3-yl)-2,4-difluoro-phenyl]-2,5-difluoro-benzenesulfonamide]",< 0.01,< 0.02,> 10
